Read-outs that look alike come from different tables or passages of the source.
Tests used:
[1] = target: PARP6S (Homo sapiens, UniProt Q2NL67); assay: PARP panel: ADP-ribosylation of SRPK2 using 6-a-NAD+; assay type: biochemical
[2] = target: T1, PARP10 (Homo sapiens, UniProt Q53GL7); assay: PARP10-dependent ADP-ribosylation in HEK293T cells expressing GFP-PARP10, Western blot with ADP-ribose binding reagent; assay type: cell-based; conditions: for EC50: GFP-PARP10, 22 at 1-100 μM for 3 h
T1 construct: Human embryonic kidney (HEK) 293T cells expressing full-length PARP10; expressed in transfected cells; host or cells: HEK293T
T1 sequence (Q53GL7 1-1025): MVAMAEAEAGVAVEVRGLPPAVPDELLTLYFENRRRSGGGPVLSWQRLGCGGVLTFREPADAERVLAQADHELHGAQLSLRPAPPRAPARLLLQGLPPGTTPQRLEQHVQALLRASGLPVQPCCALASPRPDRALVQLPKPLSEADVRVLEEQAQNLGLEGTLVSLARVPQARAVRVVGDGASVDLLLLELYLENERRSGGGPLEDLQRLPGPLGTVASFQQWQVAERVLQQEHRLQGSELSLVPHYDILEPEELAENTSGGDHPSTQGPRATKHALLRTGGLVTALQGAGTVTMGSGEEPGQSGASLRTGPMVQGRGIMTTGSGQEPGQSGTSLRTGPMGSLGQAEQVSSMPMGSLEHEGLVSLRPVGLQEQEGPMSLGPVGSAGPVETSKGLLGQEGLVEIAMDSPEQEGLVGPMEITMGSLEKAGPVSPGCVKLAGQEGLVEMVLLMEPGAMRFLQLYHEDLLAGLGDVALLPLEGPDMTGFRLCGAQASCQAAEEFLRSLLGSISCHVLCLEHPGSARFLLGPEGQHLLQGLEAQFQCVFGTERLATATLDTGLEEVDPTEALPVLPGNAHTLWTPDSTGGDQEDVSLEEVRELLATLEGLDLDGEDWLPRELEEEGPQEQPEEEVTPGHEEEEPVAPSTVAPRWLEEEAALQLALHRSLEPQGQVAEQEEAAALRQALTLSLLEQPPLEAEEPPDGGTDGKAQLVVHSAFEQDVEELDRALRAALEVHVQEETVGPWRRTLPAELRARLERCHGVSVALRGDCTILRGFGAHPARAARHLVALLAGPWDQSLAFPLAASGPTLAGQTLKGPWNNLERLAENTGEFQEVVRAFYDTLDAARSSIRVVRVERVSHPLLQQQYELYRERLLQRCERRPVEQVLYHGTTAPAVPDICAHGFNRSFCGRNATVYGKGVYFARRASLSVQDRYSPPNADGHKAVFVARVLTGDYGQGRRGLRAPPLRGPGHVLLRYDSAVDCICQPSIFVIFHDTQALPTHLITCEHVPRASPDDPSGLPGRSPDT
Procedure: We next determined if 22 could inhibit PARP10-dependent ADP-ribosylation in cells. […] Med. Chem. Lett. 25, pp. 4770-4773} Human embryonic kidney (HEK) 293T cells expressing full-length PARP10 were treated with increasing concentrations of 22 (1-100 μM). […] The EC50 value varies depending on the species quantified.
HEK293T cells were transfected with GFP-PARP10 and incubated with increasing concentrations of 22 (1-100 μM) for 3 h. Lysates were prepared and auto-ADP-ribosylation of PARP10 and its high molecular weight (HMW) targets were analyzed with an ADP-ribose binding reagent (α-APDr) (FIG. 2B) Quantification of data shown in FIG. 2(a).

[3] = target: T2, PARP10cat (Homo sapiens, UniProt Q53GL7); assay: Inhibition of PARP10cat-mediated ADP-ribosylation of SRPK2 using NAD+ (100 μM); assay type: biochemical
T2 sequence (Q53GL7 806-1025 limits assumed): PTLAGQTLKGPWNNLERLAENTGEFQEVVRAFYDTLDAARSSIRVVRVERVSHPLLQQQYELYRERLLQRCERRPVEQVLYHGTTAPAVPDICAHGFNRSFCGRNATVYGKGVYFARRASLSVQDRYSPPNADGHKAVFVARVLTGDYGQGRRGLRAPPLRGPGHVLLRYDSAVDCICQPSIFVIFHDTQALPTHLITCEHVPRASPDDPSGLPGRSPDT

[4] = target: T3, PARP8 (Homo sapiens, UniProt Q8N3A8); assay: PARP panel: ADP-ribosylation of SRPK2 using 6-a-NAD+; assay type: biochemical
T3 sequence (Q8N3A8 1-854): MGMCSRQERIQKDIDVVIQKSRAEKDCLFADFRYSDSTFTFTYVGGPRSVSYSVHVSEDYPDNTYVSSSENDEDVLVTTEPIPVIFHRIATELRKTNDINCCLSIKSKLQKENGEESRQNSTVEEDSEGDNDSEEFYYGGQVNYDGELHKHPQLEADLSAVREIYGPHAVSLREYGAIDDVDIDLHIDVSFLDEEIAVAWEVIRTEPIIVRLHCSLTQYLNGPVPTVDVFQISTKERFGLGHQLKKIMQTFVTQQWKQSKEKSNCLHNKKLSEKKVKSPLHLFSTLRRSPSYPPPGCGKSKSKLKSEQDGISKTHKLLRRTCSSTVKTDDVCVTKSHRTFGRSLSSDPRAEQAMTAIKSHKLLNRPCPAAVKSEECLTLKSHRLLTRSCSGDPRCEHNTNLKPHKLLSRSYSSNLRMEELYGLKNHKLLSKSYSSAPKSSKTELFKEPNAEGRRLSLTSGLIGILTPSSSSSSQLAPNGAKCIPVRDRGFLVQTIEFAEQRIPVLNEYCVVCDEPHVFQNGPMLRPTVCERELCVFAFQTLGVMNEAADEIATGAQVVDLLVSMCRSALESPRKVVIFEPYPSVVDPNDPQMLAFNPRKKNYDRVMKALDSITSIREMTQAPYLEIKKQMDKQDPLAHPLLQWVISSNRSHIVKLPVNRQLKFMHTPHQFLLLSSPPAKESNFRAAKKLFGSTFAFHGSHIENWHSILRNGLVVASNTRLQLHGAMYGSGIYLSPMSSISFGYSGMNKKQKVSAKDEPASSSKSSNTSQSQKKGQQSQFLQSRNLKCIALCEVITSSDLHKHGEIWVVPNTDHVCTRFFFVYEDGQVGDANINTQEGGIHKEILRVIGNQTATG

Chain of PARP6S (Q2NL67 1-518 isoform Q2NL67-2): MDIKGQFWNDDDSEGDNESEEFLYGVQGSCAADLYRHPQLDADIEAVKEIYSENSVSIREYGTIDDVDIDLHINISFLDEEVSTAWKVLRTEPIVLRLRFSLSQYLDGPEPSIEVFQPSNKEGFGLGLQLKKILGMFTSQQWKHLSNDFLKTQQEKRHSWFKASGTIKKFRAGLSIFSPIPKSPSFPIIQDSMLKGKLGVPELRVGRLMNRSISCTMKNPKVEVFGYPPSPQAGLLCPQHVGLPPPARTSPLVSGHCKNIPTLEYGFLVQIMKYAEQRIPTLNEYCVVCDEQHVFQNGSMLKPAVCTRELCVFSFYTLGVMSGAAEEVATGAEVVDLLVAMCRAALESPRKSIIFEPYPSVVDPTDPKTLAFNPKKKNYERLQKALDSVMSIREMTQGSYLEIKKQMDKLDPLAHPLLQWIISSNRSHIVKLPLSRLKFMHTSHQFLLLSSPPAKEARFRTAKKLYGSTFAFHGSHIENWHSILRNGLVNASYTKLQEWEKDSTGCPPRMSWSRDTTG

For `Cc1c(-c2ccnc(C(F)(F)F)c2)ccc2c1CCNC2=O` [Compound 22, 5-methyl-6-(2-(trifluoromethyl)pyridin-4-yl)-3,4-dihydroisoquinolin-1(2H)-one], the IC50 ([1]; 6-a-NAD+) was over 30 µM, the PARP/PARP10 ([1]; PARP6S over PARP10cat) was over 10 and the “inhibition of auto-ADP-ribosylation of PARP10 and PARP10-labeled targets in cells” value ([2]; 1-100 μM) was “dose-dependent manner”. For the same molecule, the EC50 ([2]; read-out: EC50, PARP10 itself (auto-ADP-ribosylation)) was 11 µM, the EC50 ([2]; read-out: EC50, PARP10 targets (HMW species)) was 2.3 µM and the “selectivity for PARP10 over PARP11” value [3] was 29 fold. For the same molecule, the “improvement in selectivity for PARP10 over PARP11 compared to parent compound” value ([3]; 12 vs 8, 14 vs 3, 20, 22 vs 16, 23, 24 vs 15) was about 2 fold, the “PARP10cat pIC50 ± S.E.M.” value ([3]; ADP-ribosylation of SRPK2, NAD+ 100 μM) was 5.74 ± 0.02 and the PARP11/PARP10 ([3]; ratio of IC50 values, PARP11 over PARP10cat) was 29. For the same molecule, the IC50 ([4]; 6-a-NAD+) was over 30 µM and the PARP/PARP10 ([4]; PARP8 over PARP10cat) was over 10.

Source: patent US10899733B2, “Inhibitors of PARPs that catalyze mono-ADP-ribosylation” (OREGON HEALTH & SCIENCE UNIVERSITY, priority 2017, dated 2021)
